{
  "source": "patent US20170209547A1",
  "about": "“N[…] USE IN […] AND ANXIETY IN PETS” (DOMES PHARMA, priority 2016, published 2017)",
  "test_system": "male Wistar Han rats",
  "assay": "EDC test (anxiety test with electric probe burying), global anxiety score",
  "format": "in vivo, rat",
  "details": "Diazepam 3 mg/kg p.o. 60 min before the test",
  "experimental": "Forty male Wistar Han rats (Crl:WI(Han), Charles River Laboratories, L'Arbresle, France), weighing from 250 to 275 g were used. Upon receipt, the rats were marked and split into groups of 3 or 4 animals in polycarbonate cages (Eurostandard type IIIH, 425×266×185 mm, Tecniplast, Lyon, France). The animals were housed in a climate-controlled animal house, at a temperature of […] and relative humidity of 50±20%. The rats had food (Teklad Global 2016, Harlan, Ganat, France) and drink ad libitum and were held in a day-night cycle inverted by 12 hours (day from 20:00 to 08:00). […]\nThe experimental device was placed in a room lit with a low intensity red light. A video camera connected to a digital recorder saved all behavioral sequences so that behavior of interest could be measured later. […]\nThe electric probe was inserted into the cage before the start of the test. […] After the electric shock, the rat's behavior was recorded for 5 min. […]\nThe following behaviors were quantified from video recordings made during the tests: • duration probe was buried; • number of stretches in the direction of the probe; • number of approaches to the probe; • number of flights from the probe. […]",
  "data": [
    {"smiles": "CN1C(=O)CN=C(c2ccccc2)c2cc(Cl)ccc21", "note": "[Diazepam]", "values": [
      {"measurement": "Global anxiety score vs. vehicle group (Mann-Whitney test)", "result": "significantly lower"},
      {"measurement": "Global anxiety score, Median", "setting": "n = 9, Vehicle median 111", "result": 41}
    ]}
  ]
}
